Assay type in all cases: biochemical
One assay has as its target CDK4/CCND3 (Homo sapiens, UniProt P11802). As to the kind of experiment: CDK4 homogeneous time-resolved fluorescence (HTRF) kinase assay. Particulars: CDK4/CCND. As to the method: A CDK homogeneous time-resolved fluorescence (HTRF) assay was used to assess the potency of the compounds described herein.
To an untreated 384-well microtiter plate (ProxiPlate) was added 100 nL 100×test compound in DMSO and 5 μL 2×CDK enzyme in assay buffer (50 mM HEPES, 1 mM EGTA, 10 mM MgCl2, 0.01% Tween 20, 2 mM DTT). The plate was centrifuged at 800 RPM for 1 min then incubated for 20 min at 23 °C. 2.5 μL per well of 4×ATP and 2.5 μL 4×ULight™-eIF4E-binding protein 1 (Thr37/46) Peptide substrate were added to all wells. After addition, the plates were centrifuged at 800 RPM for 1 min. The plates were incubated at 23 °C for 60 min. 5 μL per well 4×EDTA solution were added to each well to stop the reaction. 5 μL 4×LANCE Ultra Europium-anti-phospho-eIF4E-binding protein 1 (Thr37/46) antibody were added to each well and the plate was centrifuged for 1 min at 800 RPM. The plate was incubated for 60 min at 23 °C. Fluorescence was read at 340 nm excitation and 665 nm emission on an EnVision 2105 fluorescence reader. The final concentrations of reagents in the activity assay were 1.5 nM CDK4/CCND3, 1 mM ATP, 50 nM ULight™-eIF4E-binding protein 1 (Thr37/46) Peptide substrate, 1% DMSO, 10 mM EDTA, and 2 nM LANCE Ultra Europium-anti-phospho-eIF4E-binding protein 1 (Thr37/46).
Dose-response titrations were conducted by using an 11-point, half-logarithmic serial dilution scheme typically starting at 10 μM. Signals were reported as fluorescence units at 665 nm or the ratio of fluorescence units at 665 nm/fluorescence units at 615 nm. Signals are referred to below as “Lance signals”.
Using this assay, the IC50 values of example compounds were determined. Table 3 illustrates the IC50 for various Example compounds of Formula IA. Table 4 illustrates the IC50 for various other Example compounds of Formula I. ND=not determined.
On the technique in general: Time-resolved FRET reads energy transfer from a long-lived donor to a nearby acceptor.

In the next assay the target is CDK6/CCND1 (Homo sapiens, UniProt Q00534). As to the kind of experiment: CDK6 homogeneous time-resolved fluorescence (HTRF) kinase assay. Particulars: CDK6/CCND. In a few lines:
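Assay conditions: HEPES buffer containing 10 mM MgCl2, 1 mM EGTA, 2 mM DTT, 0.01% Tween 20; 1 nM CDK6/CCND1, 50 nM peptide substrate, 1 mM ATP. Detection after 60 min reaction used 2 nM europium antibody with 340 nm excitation. Potency fitted from half-log series, 11 points.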

The target in a further assay is CDK2/CCNE1 (Homo sapiens, UniProt P24941). Kind of assay: CDK2 homogeneous time-resolved fluorescence (HTRF) kinase assay. The settings on record: CDK2/CCNE. In a few lines:
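An HTRF format measures CDK2/CCNE1 (3 nM) phosphorylating a 4E-BP1 Thr37/46 peptide at high (1 mM) ATP. Reactions run one hour at 23 °C, then EDTA-quenched and probed with Eu-labelled phospho-specific antibody.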

A further assay has as its target CDK1/CCNB1 (Homo sapiens, UniProt P06493). Kind of assay: CDK1 homogeneous time-resolved fluorescence (HTRF) kinase assay. The settings on record: CDK1/CCNB. In short, it runs like this: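 Kinase activity is measured as Lance signal (665 nm, or 665/615 nm ratio) from europium-labelled anti-phospho-Thr37/46 antibody binding ULight-4E-BP1 peptide. Reactions contain 0.5 nM enzyme, 1 mM ATP, 1% DMSO and run 60 min at 23 °C before EDTA quench.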

Where [1] appears, read: >250 nM marked x, read-out: CDK4/CCND IC50 >250 nM.
[2] abbreviates: >250 nM marked x, read-out: CDK6/CCND IC50 >250 nM.
[3] abbreviates: 25-250 nM marked x, read-out: CDK2/CCNE IC50 25-250 nM.
Setting [4] is: >250 nM marked x, read-out: CDK1/CCNB IC50 >250 nM.
[5] abbreviates: >250 nM marked x, read-out: CDK2/CCNE IC50 >250 nM.
Setting [6] is: 25-250 nM marked x, read-out: CDK6/CCND IC50 25-250 nM.

Read-outs that look alike come from different tables or passages of the source. A value given as a limit tells only on which side of the number the result lay.

Chain of CDK4/CCND3 (P11802 whole entry): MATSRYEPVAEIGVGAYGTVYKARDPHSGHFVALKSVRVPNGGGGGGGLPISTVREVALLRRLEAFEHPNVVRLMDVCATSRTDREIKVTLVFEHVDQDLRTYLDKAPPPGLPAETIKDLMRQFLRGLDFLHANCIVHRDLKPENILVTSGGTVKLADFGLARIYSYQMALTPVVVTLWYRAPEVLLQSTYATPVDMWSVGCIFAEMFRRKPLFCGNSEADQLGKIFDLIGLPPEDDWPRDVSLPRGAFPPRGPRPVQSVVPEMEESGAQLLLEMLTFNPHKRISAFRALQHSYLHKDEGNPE
Chain of CDK4/CCND3 (P30281 whole entry partner): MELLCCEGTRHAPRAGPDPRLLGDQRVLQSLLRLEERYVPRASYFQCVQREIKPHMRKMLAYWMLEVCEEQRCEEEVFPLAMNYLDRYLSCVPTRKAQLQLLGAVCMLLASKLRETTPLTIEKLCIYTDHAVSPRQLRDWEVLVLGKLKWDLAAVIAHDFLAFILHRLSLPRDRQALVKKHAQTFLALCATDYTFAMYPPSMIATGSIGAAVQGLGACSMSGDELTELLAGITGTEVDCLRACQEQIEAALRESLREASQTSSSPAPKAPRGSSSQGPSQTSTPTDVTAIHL
Chain of CDK1/CCNB1 (P06493 whole entry): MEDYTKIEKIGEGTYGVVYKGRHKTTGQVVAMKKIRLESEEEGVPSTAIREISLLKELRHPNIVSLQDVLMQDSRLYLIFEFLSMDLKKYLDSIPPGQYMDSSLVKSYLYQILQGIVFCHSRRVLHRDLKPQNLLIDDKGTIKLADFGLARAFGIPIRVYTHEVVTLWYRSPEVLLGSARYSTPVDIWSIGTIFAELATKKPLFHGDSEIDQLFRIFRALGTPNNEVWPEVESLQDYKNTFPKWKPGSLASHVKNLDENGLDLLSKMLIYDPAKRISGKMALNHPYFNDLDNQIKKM
Chain of CDK1/CCNB1 (P14635 whole entry partner): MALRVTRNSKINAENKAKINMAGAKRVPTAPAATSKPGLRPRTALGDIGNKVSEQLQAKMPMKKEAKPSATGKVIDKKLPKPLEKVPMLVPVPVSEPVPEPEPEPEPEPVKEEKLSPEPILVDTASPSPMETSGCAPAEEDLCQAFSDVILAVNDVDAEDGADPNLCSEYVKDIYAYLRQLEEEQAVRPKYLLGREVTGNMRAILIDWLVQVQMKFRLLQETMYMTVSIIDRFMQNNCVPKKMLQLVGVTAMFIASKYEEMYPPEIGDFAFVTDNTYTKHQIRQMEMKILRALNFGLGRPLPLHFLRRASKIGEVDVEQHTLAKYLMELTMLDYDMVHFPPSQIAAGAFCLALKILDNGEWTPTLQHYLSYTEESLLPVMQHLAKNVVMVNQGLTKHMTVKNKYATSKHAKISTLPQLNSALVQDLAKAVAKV
Chain of CDK6/CCND1 (Q00534 whole entry): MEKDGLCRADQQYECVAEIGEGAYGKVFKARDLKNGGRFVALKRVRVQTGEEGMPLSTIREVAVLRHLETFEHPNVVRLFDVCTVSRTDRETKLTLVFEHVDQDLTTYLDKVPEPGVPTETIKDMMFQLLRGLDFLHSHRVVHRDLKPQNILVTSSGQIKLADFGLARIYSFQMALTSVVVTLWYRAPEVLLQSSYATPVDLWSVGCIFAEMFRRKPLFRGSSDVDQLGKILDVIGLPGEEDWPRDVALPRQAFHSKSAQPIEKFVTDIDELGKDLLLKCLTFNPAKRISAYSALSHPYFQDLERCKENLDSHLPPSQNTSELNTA
Chain of CDK6/CCND1 (P24385 whole entry partner): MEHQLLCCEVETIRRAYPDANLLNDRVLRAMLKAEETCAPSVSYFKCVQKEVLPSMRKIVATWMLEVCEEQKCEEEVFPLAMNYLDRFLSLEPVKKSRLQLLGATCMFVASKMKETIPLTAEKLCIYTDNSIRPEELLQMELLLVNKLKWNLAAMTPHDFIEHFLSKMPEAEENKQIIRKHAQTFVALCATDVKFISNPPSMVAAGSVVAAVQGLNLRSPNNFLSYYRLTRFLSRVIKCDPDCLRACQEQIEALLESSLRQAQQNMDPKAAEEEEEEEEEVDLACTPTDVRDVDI

Consider `CS(=O)(=O)c1ccc(Nc2cc3c(C4CCC(O)CC4)nccc3cn2)cc1` (racemic) [Ex 215, 4-(7-((4-(methylsulfonyl)phenyl)amino)-2,6-naphthyridin-1-yl)cyclohexan-1-ol], for which the IC50 on CDK4/CCND3 (setting [1]) was over 250 nM; on CDK6/CCND1 (setting [2]), over 250 nM; at CDK2/CCNE1 (setting [3]) it was 25 to 250 nM; on CDK1/CCNB1 (setting [4]) it was over 250 nM.

With `O=S(=O)(CCO)c1ccc(Nc2cc3c(N4CCC(O)C4)nccc3cn2)cc1` (racemic) [Ex 221, 1-(7-((4-((2-hydroxyethyl)sulfonyl)phenyl)amino)-2,6-naphthyridin-1-yl)pyrrolidin-3-ol], the IC50 is over 250 nM on CDK4/CCND3 (setting [1]), over 250 nM at CDK6/CCND1 (setting [2]), 25 to 250 nM on CDK2/CCNE1 (setting [3]) and over 250 nM at CDK1/CCNB1 (setting [4]).

On to `CN1CCC(c2nccc3cnc(Nc4ccc(S(C)(=O)=O)cc4)cc23)C1` (racemic) [Ex 229, 5-(1-methylpyrrolidin-3-yl)-N-(4-(methylsulfonyl)phenyl)-2,6-naphthyridin-3-amine], for which the IC50 at CDK4/CCND3 (setting [1]), at CDK6/CCND1 (setting [2]), at CDK2/CCNE1 (setting [5]) and on CDK1/CCNB1 (setting [4]) was over 250 nM throughout.

In the case of `CS(=O)(=O)c1ccc(Nc2cc3c(C4CCN(Cc5ccccc5)C4)nccc3cn2)cc1` (racemic) [Ex 230, 5-(1-benzylpyrrolidin-3-yl)-N-(4-(methylsulfonyl)phenyl)-2,6-naphthyridin-3-amine], the IC50 on CDK4/CCND3 (setting [1]), on CDK6/CCND1 (setting [2]), at CDK2/CCNE1 (setting [5]) and on CDK1/CCNB1 (setting [4]) was over 250 nM each time.

With `COc1ccc(CN2CCC(c3nccc4cnc(Nc5ccc(S(C)(=O)=O)cc5)cc34)C2)cc1` (racemic) [Ex 231, 5-(1-(4-methoxybenzyl)pyrrolidin-3-yl)-N-(4-(methylsulfonyl)phenyl)-2,6-naphthyridin-3-amine], the IC50 at CDK4/CCND3 (setting [1]), at CDK6/CCND1 (setting [2]), on CDK2/CCNE1 (setting [5]) and on CDK1/CCNB1 (setting [4]) was over 250 nM in each case.

As for `CS(=O)(=O)c1ccc(Nc2cc3c(C4CCN(Cc5cccnc5)C4)nccc3cn2)cc1` (racemic) [Ex 232, N-(4-(methylsulfonyl)phenyl)-5-(1-(pyridin-3-ylmethyl)pyrrolidin-3-yl)-2,6-naphthyridin-3-amine], the IC50 at CDK4/CCND3 (setting [1]), on CDK6/CCND1 (setting [2]), on CDK2/CCNE1 (setting [5]) and at CDK1/CCNB1 (setting [4]) was over 250 nM throughout.

On to `CS(=O)(=O)c1ccc(Nc2cc3c(C4CCN(Cc5ccc(Cl)cc5)C4)nccc3cn2)cc1` (racemic) [Ex 233, 5-(1-(4-chlorobenzyl)pyrrolidin-3-yl)-N-(4-(methylsulfonyl)phenyl)-2,6-naphthyridin-3-amine], for which the IC50 on CDK4/CCND3 (setting [1]) was over 250 nM; at CDK6/CCND1 (setting [2]) it was over 250 nM; on CDK2/CCNE1 (setting [3]), 25 to 250 nM; on CDK1/CCNB1 (setting [4]) it was over 250 nM.

As to `CCC(=O)N1CCC(c2nccc3cnc(Nc4ccc(S(C)(=O)=O)cc4)cc23)C1` (racemic) [Ex 234, 1-(3-(7-((4-(methylsulfonyl)phenyl)amino)-2,6-naphthyridin-1-yl)pyrrolidin-1-yl)propan-1-one], the IC50 at CDK4/CCND3 (setting [1]), on CDK6/CCND1 (setting [2]), on CDK2/CCNE1 (setting [5]) and at CDK1/CCNB1 (setting [4]) was over 250 nM in each case.

As for `CS(=O)(=O)c1ccc(Nc2cc3c(C4CCN(S(C)(=O)=O)C4)nccc3cn2)cc1` (racemic) [Ex 235, N-(4-(methylsulfonyl)phenyl)-5-(1-(methylsulfonyl)pyrrolidin-3-yl)-2,6-naphthyridin-3-amine], the IC50 on CDK4/CCND3 (setting [1]), on CDK6/CCND1 (setting [2]), on CDK2/CCNE1 (setting [5]) and at CDK1/CCNB1 (setting [4]) was over 250 nM in each case.

As to `CC(C)S(=O)(=O)N1CCC(c2nccc3cnc(Nc4ccc(S(C)(=O)=O)cc4)cc23)C1` (racemic) [Ex 236, 5-(1-(isopropylsulfonyl)pyrrolidin-3-yl)-N-(4-(methylsulfonyl)phenyl)-2,6-naphthyridin-3-amine], the IC50 on CDK4/CCND3 (setting [1]), on CDK6/CCND1 (setting [2]), at CDK2/CCNE1 (setting [5]) and at CDK1/CCNB1 (setting [4]) was over 250 nM in each case.

For the compound `C=CCS(=O)(=O)N1CCC(c2nccc3cnc(Nc4ccc(S(C)(=O)=O)cc4)cc23)C1` (racemic) [Ex 237, 5-(1-(allylsulfonyl)pyrrolidin-3-yl)-N-(4-(methylsulfonyl)phenyl)-2,6-naphthyridin-3-amine], the IC50 at CDK4/CCND3 (setting [1]), at CDK6/CCND1 (setting [2]), on CDK2/CCNE1 (setting [5]) and on CDK1/CCNB1 (setting [4]) was over 250 nM in each case.

In the case of `CS(=O)(=O)c1ccc(Nc2cc3c(C4CCN(S(=O)(=O)c5cccnc5)C4)nccc3cn2)cc1` (racemic) [Ex 238, N-(4-(methylsulfonyl)phenyl)-5-(1-(pyridin-3-ylsulfonyl)pyrrolidin-3-yl)-2,6-naphthyridin-3-amine], the IC50 on CDK4/CCND3 (setting [1]), on CDK6/CCND1 (setting [2]), at CDK2/CCNE1 (setting [5]) and at CDK1/CCNB1 (setting [4]) was over 250 nM in each case.

Consider `CS(=O)(=O)c1ccc(Nc2cc3c(C4CCN(S(=O)(=O)C5CC5)C4)nccc3cn2)cc1` (racemic) [Ex 239, 5-(1-(cyclopropylsulfonyl)pyrrolidin-3-yl)-N-(4-(methylsulfonyl)phenyl)-2,6-naphthyridin-3-amine], for which the IC50 at CDK4/CCND3 (setting [1]), on CDK6/CCND1 (setting [2]), at CDK2/CCNE1 (setting [5]) and on CDK1/CCNB1 (setting [4]) was over 250 nM in each case.

In the case of `CS(=O)(=O)c1ccc(Nc2cc3c(C4=CC(O)CCC4)nccc3cn2)cc1` (racemic) [Ex 240, 3-(7-((4-(methylsulfonyl)phenyl)amino)-2,6-naphthyridin-1-yl)cyclohex-2-en-1-ol], the IC50 was over 250 nM on CDK4/CCND3 (setting [1]), 25 to 250 nM at CDK6/CCND1 (setting [6]), 25 to 250 nM on CDK2/CCNE1 (setting [3]) and over 250 nM on CDK1/CCNB1 (setting [4]).

`CS(=O)(=O)c1ccc(Nc2cc3c(C#CC4CCC(C#N)CC4)nccc3cn2)cc1` (racemic) [Ex 252, 4-((7-((4-(methylsulfonyl)phenyl)amino)-2,6-naphthyridin-1-yl)ethynyl)cyclohexane-1-carbonitrile]: the IC50 on CDK4/CCND3 (25-250 nM marked x, read-out: CDK4/CCND IC50 25-250 nM) was 25 to 250 nM; on CDK6/CCND1 (setting [6]) it was 25 to 250 nM; on CDK2/CCNE1 (<25 nM, read-out: CDK2/CCNE IC50 <25 nM) it was under 25 nM; on CDK1/CCNB1 (setting [4]) it was over 250 nM.

Take `N=S(=O)(c1ccc(Nc2cc3c(C#Cc4cccnc4N)nccc3cn2)cc1)C1CCC1` (racemic) [Ex 416, (4-((5-((2-aminopyridin-3-yl)ethynyl)-2,6-naphthyridin-3-yl)amino)phenyl)(cyclobutyl)(imino)-l6-sulfanone]: the IC50 on CDK4/CCND3 (x = IC50 >250 nM, read-out: CDK4/CCND IC50 (>250 nM column)) was over 250 nM; on CDK6/CCND1 (x = IC50 >250 nM, read-out: CDK6/CCND IC50 (>250 nM column)) it was over 250 nM; on CDK2/CCNE1 (x = IC50 25-250 nM, read-out: CDK2/CCNE IC50 (25-250 nM)) it was 25 to 250 nM; on CDK1/CCNB1 (x = IC50 >250 nM, read-out: CDK1/CCNB IC50 (>250 nM column)) it was over 250 nM.

The record behind these values is patent US20260325533A1, “CDK INHIBITOR COMPOUNDS” (ALEKSIA THERAPEUTICS, INC., priority 2023, published 2026).
